# Assays:
# [1] = Storage stability test (total amount of impurities by HPLC after storage in thermostatic chambers); type: physicochemical; details: for Course of the total amounts of impurities during storage: both at 25° C. and 40° C.
# Procedure: A storage stability test was carried out for monohydrate crystal and an amorphous form of the compound of Formula (XI). The monohydrate crystal of the compound of Formula (XI) was prepared according to the procedure of Example 1, Step 7. The amorphous form of the compound of Formula (XI) was obtained by the following procedure. The monohydrate crystal of the compound (15 g) was melted by heating on hot-stage, and allowed to be cooled to room temperature in a humidity-controlled desiccator (25° C./dry). The resulting solid was grinded in mortar to give a sample used as an amorphous form. The samples were stored in thermostatic chambers at 25° C. or 40° C., and the purity each of the samples was observed after 1 month, 3 months and 6 months.
# The purity was determined in the following procedure. A portion each of the samples was weighed precisely (ca. 6 mg) and dissolved in a mixture of water and methanol (1:1) to be 10 mL accurately. The resulting solutions were used as sample solutions, and a portion (10 μL) each of the sample solutions was subjected to HPLC analysis. A total amount of impurities were calculated according to the following formula.
# Measurement Condition of HPLC
# Device: 2695 Separations Module (manufactured by Waters), 2487 Dual k Absorbance Detector (manufactured by Waters) or 996 Photodiode Array Detector (manufactured by Waters)
# Column: YMC-Pack ODS-AM AM-302-3, 4.6 mm I.D.×15 cm, particle size 3 μm (manufactured by YMC)
# Mobile phase: Eluent A=methanol, Eluent B=water
# Gradient operation: Eluent A: 55% (15 min), Eluent A: 55% to 100% (10 min), 100% (5 min)
# Detection wavelength: 220 nm
# Sample cooler temperature: 5° C.
# Period for measuring peak area: 30 minutes after injection
# (§1) A storage stability test was carried out for co-crystal of the compound of Formula (XI) with sodium acetate according to the procedure of Test Example 2. The co-crystal of the compound of Formula (XI) with sodium acetate was prepared according to the procedure of Example 5. The samples were stored in thermostatic chambers at 25° C. or 40° C., and the purity each of the samples was observed after 1 month and 3 months. The measurement results were compared with those for the amorphous form obtained in Test Example 2.
# as §1, with “potassium” for “sodium”, “6.” for “5.”
# [2] = target: T1, SGLT2 (Homo sapiens, UniProt P31639); details: statement of Patent Document 1 (WO 2006/080421 A1); cited from earlier work
# T1 sequence (P31639 1-672): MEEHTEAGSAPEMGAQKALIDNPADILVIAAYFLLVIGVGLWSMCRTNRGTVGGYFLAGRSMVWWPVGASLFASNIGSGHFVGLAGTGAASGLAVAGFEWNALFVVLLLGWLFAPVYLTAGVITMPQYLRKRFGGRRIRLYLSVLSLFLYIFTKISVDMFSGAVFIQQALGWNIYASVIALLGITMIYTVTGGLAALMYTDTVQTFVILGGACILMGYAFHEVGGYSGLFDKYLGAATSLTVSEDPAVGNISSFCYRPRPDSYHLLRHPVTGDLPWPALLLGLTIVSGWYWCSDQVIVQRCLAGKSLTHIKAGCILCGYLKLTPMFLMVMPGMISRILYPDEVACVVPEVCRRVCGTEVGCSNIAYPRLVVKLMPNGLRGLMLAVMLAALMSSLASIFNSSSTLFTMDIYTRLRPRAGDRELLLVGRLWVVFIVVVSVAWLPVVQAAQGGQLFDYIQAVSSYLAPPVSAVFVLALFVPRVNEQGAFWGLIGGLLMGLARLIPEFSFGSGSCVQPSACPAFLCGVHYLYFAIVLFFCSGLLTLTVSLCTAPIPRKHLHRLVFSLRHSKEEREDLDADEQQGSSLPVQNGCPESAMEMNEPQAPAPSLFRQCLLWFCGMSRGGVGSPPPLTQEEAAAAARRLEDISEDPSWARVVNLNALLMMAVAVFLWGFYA
SMILES,Course of the total amounts of impurities during storage [1],"Total amount of impurities (%) ([1]; storage at 25° C., 0 month)","Total amount of impurities (%) ([1]; storage at 25° C., 3 month)","Total amount of impurities (%) ([1]; storage at 25° C., 6 month)","Total amount of impurities (%) ([1]; storage at 40° C., 0 month)","Total amount of impurities (%) ([1]; storage at 40° C., 1 month)","Total amount of impurities (%) ([1]; storage at 40° C., 3 month)","Total amount of impurities (%) ([1]; storage at 40° C., 6 month)",Inhibitory activity against SGLT2 [2]
"CCc1ccc(Cc2ccc3c(c2)[C@]2(OC3)O[C@H](CO)[C@@H](O)[C@H](O)[C@H]2O)cc1 [Amorphous form, 1,1-anhydro-1-C-[5-(4-ethylphenyl)methyl-2-(hydroxymethyl)phenyl]-β-D-glucopyranose]",increased time-dependently,0.35,0.66,0.87,0.35,0.62,0.92,1.46,
"CCc1ccc(Cc2ccc3c(c2)[C@]2(OC3)O[C@H](CO)[C@@H](O)[C@H](O)[C@H]2O)cc1 [Co-crystal with potassium acetate, 1,1-anhydro-1-C-[5-(4-ethylphenyl)methyl-2-(hydroxymethyl)phenyl]-β-D-glucopyranose]",maintained nearly constant for 3 months,0.08,0.08,,0.08,0.08,0.08,,
CCc1ccc(Cc2ccc3c(c2)[C@]2(OC3)O[C@H](CO)[C@@H](O)[C@H](O)[C@H]2O)cc1 [Formula (B)],,,,,,,,,excellent inhibitory activity

# More lines, main results first:
Course of the total amounts of impurities during storage [1],"Total amount of impurities (%) ([1]; storage at 25° C., 0 month)","Total amount of impurities (%) ([1]; storage at 25° C., 3 month)","Total amount of impurities (%) ([1]; storage at 25° C., 6 month)","Total amount of impurities (%) ([1]; storage at 40° C., 0 month)","Total amount of impurities (%) ([1]; storage at 40° C., 1 month)","Total amount of impurities (%) ([1]; storage at 40° C., 3 month)","Total amount of impurities (%) ([1]; storage at 40° C., 6 month)",SMILES,Inhibitory activity against SGLT2 [2]
maintained nearly constant for 3 months,0.07,0.07,,0.07,0.07,0.08,,"CCc1ccc(Cc2ccc3c(c2)[C@]2(OC3)O[C@H](CO)[C@@H](O)[C@H](O)[C@H]2O)cc1 [Co-crystal with sodium acetate, 1,1-anhydro-1-C-[5-(4-ethylphenyl)methyl-2-(hydroxymethyl)phenyl]-β-D-glucopyranose]",
maintained nearly constant for 6 months,0.30,0.29,0.32,0.30,0.32,0.31,0.36,"CCc1ccc(Cc2ccc3c(c2)[C@]2(OC3)O[C@H](CO)[C@@H](O)[C@H](O)[C@H]2O)cc1 [Monohydrate crystal, 1,1-anhydro-1-C-[5-(4-ethylphenyl)methyl-2-(hydroxymethyl)phenyl]-β-D-glucopyranose]",
